Experimental data from the supplement of paper PMC10307832.

Experiments:
Assay in all cases: relative viability (nuclei count vs DMSO), 5 days (fraction); higher = more cells survive
NCI-H2023 = test system: NCI-H2023
In short: (§1)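 Dosing by pin tool came one day after lung cancer cell lines were seeded in 1536-well plates, using either one drug or a fixed anchor-drug dose plus five library-drug doses (not always all listed) in √10 steps. After 5 days, nuclei were counted on 4× images. Relative viability is treated-well nuclei count divided by vehicle-well nuclei count, and values are medians of duplicate plates.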

BEN = test system: BEN
In short: as §1

NCI-H3122 = test system: NCI-H3122
In short: as §1

NCI-H1666 = test system: NCI-H1666
In short: as §1

COR-L 105 = test system: COR-L 105
In short: as §1

NCI-H1437 = test system: NCI-H1437
In short: as §1

HCC-366 = test system: HCC-366
In short: as §1

NCI-H661 = test system: NCI-H661
In short: as §1

LK-2 = test system: LK-2
In short: as §1

PC-14 = test system: PC-14
In short: as §1

EKVX = test system: EKVX
In short: as §1

COR-L23 = test system: COR-L23
In short: as §1

ABC-1 = test system: ABC-1
In short: as §1

NCI-H2009 = test system: NCI-H2009
In short: as §1

NCI-H441 = test system: NCI-H441
In short: as §1

HARA = test system: HARA
In short: as §1

SW 900 = test system: SW 900
In short: as §1

NCI-H727 = test system: NCI-H727
In short: as §1

201T = test system: 201T
In short: as §1

LU99A = test system: LU99A
In short: as §1

NCI-H2170 = test system: NCI-H2170
In short: as §1

NCI-H1650 = test system: NCI-H1650
In short: as §1

CAL-12T = test system: CAL-12T
In short: as §1

NCI-H838 = test system: NCI-H838
In short: as §1

CC(C)Oc1cc(Nc2nc(N[C@@H](C)c3ccc(F)cn3)ncc2Cl)n[nH]1 [AZ23] + Cc1nc(Nc2ncc(C(=O)Nc3c(C)cccc3Cl)s2)cc(N2CCN(CCO)CC2)n1 [Dasatinib] (partner 0.075 µM)
relative viability (NCI-H2023; first compound 0.03162 µM): 0.627 | relative viability (NCI-H2023; first compound 0.3162 µM): 0.57 | relative viability (BEN; first compound 0.01 µM): 0.309 | relative viability (BEN; first compound 0.03162 µM): 0.398 | relative viability (BEN; first compound 0.3162 µM): 0.304 | relative viability (NCI-H3122; first compound 0.01 µM): 0.946 | relative viability (NCI-H3122; first compound 0.03162 µM): 0.831 | relative viability (NCI-H3122; first compound 0.3162 µM): 0.856 | relative viability (NCI-H1666; first compound 0.01 µM): 0.891 | relative viability (NCI-H1666; first compound 0.03162 µM): 0.927 | relative viability (NCI-H1666; first compound 0.3162 µM): 0.809 | relative viability (COR-L 105; first compound 0.01 µM): 0.339 | relative viability (COR-L 105; first compound 0.03162 µM): 0.374 | relative viability (COR-L 105; first compound 0.3162 µM): 0.341 | relative viability (NCI-H1437; first compound 0.01 µM): 0.354 | relative viability (NCI-H1437; first compound 0.03162 µM): 0.443 | relative viability (NCI-H1437; first compound 0.3162 µM): 0.418 | relative viability (HCC-366; first compound 0.01 µM): 0.58 | relative viability (HCC-366; first compound 0.03162 µM): 0.705 | relative viability (HCC-366; first compound 0.3162 µM): 0.79 | relative viability (NCI-H661; first compound 0.01 µM): 0.948 | relative viability (NCI-H661; first compound 0.03162 µM): 1.02 | relative viability (NCI-H661; first compound 0.3162 µM): 0.847 | relative viability (LK-2; first compound 0.01 µM): 0.262 | relative viability (LK-2; first compound 0.03162 µM): 0.286 | relative viability (LK-2; first compound 0.3162 µM): 0.335 | relative viability (PC-14; first compound 0.03162 µM): 0.273 | relative viability (PC-14; first compound 0.3162 µM): 0.246 | relative viability (EKVX; first compound 0.01 µM): 0.503 | relative viability (EKVX; first compound 0.03162 µM): 0.551 | relative viability (EKVX; first compound 0.3162 µM): 0.48 | relative viability (COR-L23; first compound 0.01 µM): 0.485 | relative viability (COR-L23; first compound 0.03162 µM): 0.645 | relative viability (COR-L23; first compound 0.3162 µM): 0.504 | relative viability (ABC-1; first compound 0.01 µM): 0.583 | relative viability (ABC-1; first compound 0.03162 µM): 0.766 | relative viability (ABC-1; first compound 0.3162 µM): 0.546 | relative viability (NCI-H2009; first compound 0.01 µM): 0.278 | relative viability (NCI-H2009; first compound 0.03162 µM): 0.341 | relative viability (NCI-H2009; first compound 0.3162 µM): 0.279 | relative viability (NCI-H441; first compound 0.01 µM): 0.683 | relative viability (NCI-H441; first compound 0.03162 µM): 0.745 | relative viability (NCI-H441; first compound 0.3162 µM): 0.699 | relative viability (HARA; first compound 0.03162 µM): 0.37 | relative viability (HARA; first compound 0.3162 µM): 0.217 | relative viability (SW 900; first compound 0.01 µM): 0.385 | relative viability (SW 900; first compound 0.03162 µM): 0.593 | relative viability (SW 900; first compound 0.3162 µM): 0.541 | relative viability (NCI-H727; first compound 0.01 µM): 0.393 | relative viability (NCI-H727; first compound 0.03162 µM): 0.402 | relative viability (NCI-H727; first compound 0.3162 µM): 0.362 | relative viability (201T; first compound 0.01 µM): 0.506 | relative viability (201T; first compound 0.03162 µM): 0.614 | relative viability (201T; first compound 0.3162 µM): 0.569 | relative viability (LU99A; first compound 0.01 µM): 0.623 | relative viability (LU99A; first compound 0.03162 µM): 0.646 | relative viability (LU99A; first compound 0.3162 µM): 0.369 | relative viability (NCI-H2170; first compound 0.01 µM): 0.498 | relative viability (NCI-H2170; first compound 0.03162 µM): 0.618 | relative viability (NCI-H2170; first compound 0.3162 µM): 0.598 | relative viability (NCI-H1650; first compound 0.03162 µM): 0.33 | relative viability (NCI-H1650; first compound 0.3162 µM): 0.299 | relative viability (CAL-12T; first compound 0.03162 µM): 0.363 | relative viability (CAL-12T; first compound 0.3162 µM): 0.221 | relative viability (NCI-H838; first compound 0.01 µM): 0.255 | relative viability (NCI-H838; first compound 0.03162 µM): 0.317 | relative viability (NCI-H838; first compound 0.3162 µM): 0.293
